Results: article PMC10089971 (British journal of pharmacology, 2023)
“Also recorded” adds a separate entry of the source. Where a name gives a salt, the structure may show the parent alone.

What was measured:
[1] = Analgesic efficacy of morphine with CPT-11; format: in vivo; details: CPT-11 co-administration
intestinal organoids = assay: Intestinal organoids treated with CPT-11 with or without morphine; details: CPT-11 in the presence or absence of morphine
[2] = test system: MC38 colon adenocarcinoma cells; assay: MC38 subcutaneous tumor model, anti-tumor efficacy of CPT-11; details: MC38 s.c. tumors; compared with saline controls
[3] = test system: MC38 colon adenocarcinoma cells; details: mouse, in vivo
C57BL/6 mice [4] = assay: CPT-11-induced GI toxicity in mice; details: for CPT-11-induced tissue damage in the ileum (histological score): co-administered with CPT-11 75 mg/kg, compared with CPT-11 alone
C57BL/6 mice [5] = assay: Intestinal transit time with 70-kDa FITC-dextran; format: in vivo; details: compared to saline-treated mice
carboxylesterase (CES) = details: ref Quinney et al., 2005; cited from earlier work

SMILES: CCc1c2c(nc3ccc(OC(=O)N4CCC(N5CCCCC5)CC4)cc13)-c1cc3c(c(=O)n1C2)COC(=O)[C@]3(O)CC [CPT-11, Irinotecan hydrochloride]
- analgesic efficacy of morphine [1]: didn’t affect the analgesic efficacy of morphine
- growth of intestinal organoids (intestinal organoids): inhibited the growth of crypt stem cells
- reduction of tumor sizes [2]: 41.6%
- body weight loss in tumor-bearing mice [3]: induced weight loss

SMILES: CCOc1ccc(NC(=S)N(CCO)Cc2cc3cc(C)cc(C)c3[nH]c2=O)cc1 [Inh-1, 1-((6,8-Dimethyl-2-oxo-1,2-dihydroquinolin-3-yl)methyl)-3-(4-ethoxyphenyl)-1-(2-hydroxyethyl)thiourea]
- intestinal epithelial damage (ileal histology) (C57BL/6 mice [4]; Inh-1 in morphine + CPT-11-treated mice): rescued the intestinal epithelial damage observed with morphine and CPT-11

SMILES: Clc1cccc(Cl)c1N=C1NCCN1 [clonidine, Clonidine hydrochloride]
- gut transit time (C57BL/6 mice [5]): significantly prolonged gut transit time

SMILES: CN(C)C(=O)C(CCN1CCC(O)(c2ccc(Cl)cc2)CC1)(c1ccccc1)c1ccccc1 [loperamide, Loperamide]
- carboxylesterase inhibition (carboxylesterase (CES)): inhibitor of carboxylesterase (CES)
- CPT-11-induced tissue damage in the ileum (histological score) (C57BL/6 mice [4]): did not significantly exacerbate small intestinal tissue damage
- weight loss (C57BL/6 mice [4]; oral loperamide + CPT-11 vs CPT-11): did not significantly exacerbate

SMILES: CN1CC[C@]23c4c5ccc(O)c4O[C@H]2[C@@H](O)C=C[C@H]3[C@H]1C5 [morphine, Morphine sulfate]
- growth of intestinal organoids (intestinal organoids): did not show any direct effects on CPT-11-treated organoids
- gut transit time (C57BL/6 mice [5]): significantly prolonged gut transit time
- CPT-11-induced tissue damage in the large intestine (C57BL/6 mice [4]; co-administered with CPT-11): showed no effects on CPT-11-induced tissue damage
- CPT-11-induced tissue damage in the ileum (histological score) (C57BL/6 mice [4]): potentiated CPT-11-induced tissue damage in the ileum; also recorded: significantly potentiated CPT-11-induced tissue damage in the small intestines
